Assay results published in patent publication US10428083B2, “Heterocyclylmethyl-thienouracile as antagonists of the adenosine-A2B-receptor” (BAYER PHARMA AKTIENGESELLSCHAFT, priority 2015, dated 2019).

molecular target: human adenosine A2b receptor (Homo sapiens (Human), UniProt P29275); assay: Cellular in vitro reporter gene test for A2b receptor activity (CHO-K1, CRE-luciferase, NECA stimulation); type: cell-based; details: recombinant CHO-K1 cell line, CRE-luciferase reporter, antagonism of EC50 concentration of NECA; in some cases means of several determinations, rounded to two significant figures; read-out: A2b receptor IC50
Sequence (P29275 whole entry): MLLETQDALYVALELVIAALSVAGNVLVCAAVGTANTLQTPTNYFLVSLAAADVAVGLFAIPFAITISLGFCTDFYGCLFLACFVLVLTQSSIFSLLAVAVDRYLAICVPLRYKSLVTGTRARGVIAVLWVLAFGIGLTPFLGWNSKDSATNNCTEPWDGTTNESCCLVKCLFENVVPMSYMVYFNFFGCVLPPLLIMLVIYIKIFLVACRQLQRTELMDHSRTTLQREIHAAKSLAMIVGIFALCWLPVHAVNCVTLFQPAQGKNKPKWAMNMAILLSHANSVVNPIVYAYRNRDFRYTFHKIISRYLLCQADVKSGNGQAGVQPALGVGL
Summary of the method: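 CHO-K1 cells with CRE-driven luciferase; antagonists co-incubated with NECA at its EC50, determined in a pre-experiment on each test day. Luciferase read by luminescence 3 h after NECA addition.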

| SMILES | IC50 [nM] |
| --- | --- |
| CCn1c(=O)c2c(C)c(CN3CCNC3=O)sc2n(CCSC(F)(F)F)c1=O [Example 58, 3-Ethyl-5-methyl-6-[(2-oxoimidazolidin-1-yl)methyl]-1-{2-[(trifluoromethyl)sulphanyl]ethyl}thieno[2,3-d]pyrimidine-2,4(1H,3H)-dione] | 2.6 |
| CCOCCn1c(=O)n(CC)c(=O)c2c(C)c(CN3CCNC3=O)sc21 [Example 60, 1-(2-Ethoxyethyl)-3-ethyl-5-methyl-6-[(2-oxoimidazolidin-1-yl)methyl]thieno[2,3-d]pyrimidine-2,4(1H,3H)-dione] | 13 |
| CCn1c(=O)c2c(C)c(CN3CCNC3=O)sc2n(CCOC(C)C)c1=O [Example 61, 3-Ethyl-1-(2-isopropoxyethyl)-5-methyl-6-[(2-oxoimidazolidin-1-yl)methyl]thieno[2,3-d]pyrimidine-2,4(1H,3H)-dione] | 53 |
| CCn1c(=O)c2c(C)c(CN3CCNC3=O)sc2n(CC2COC2)c1=O [Example 72, 3-Ethyl-5-methyl-1-(oxetan-3-ylmethyl)-6-[(2-oxoimidazolidin-1-yl)methyl]thieno[2,3-d]pyrimidine-2,4(1H,3H)-dione] | 8.1 |
| CCn1c(=O)c2c(C)c(CN3CCNC3=O)sc2n(C)c1=O [Example 76, 3-Ethyl-1,5-dimethyl-6-[(2-oxoimidazolidin-1-yl)methyl]thieno[2,3-d]pyrimidine-2,4(1H,3H)-dione] | 9.3 |
| CCCn1c(=O)n(CC)c(=O)c2c(C)c(CN3CCNC3=O)sc21 [Example 77, 3-Ethyl-5-methyl-6-[(2-oxoimidazolidin-1-yl)methyl]-1-propylthieno[2,3-d]pyrimidine-2,4(1H,3H)-dione] | 5.6 |
| CCCCn1c(=O)n(CC)c(=O)c2c(C)c(CN3CCNC3=O)sc21 [Example 78, 1-Butyl-3-ethyl-5-methyl-6-[(2-oxoimidazolidin-1-yl)methyl]thieno[2,3-d]pyrimidine-2,4(1H,3H)-dione] | 1.2 |
| CCn1c(=O)c2c(C)c(CN3CCNC3=O)sc2n(CCC(C)C)c1=O [Example 79, 3-Ethyl-5-methyl-1-(3-methylbutyl)-6-[(2-oxoimidazolidin-1-yl)methyl]thieno[2,3-d]pyrimidine-2,4(1H,3H)-dione] | 9.9 |
| CCn1c(=O)c2c(C)c(CN3CCNC3=O)sc2n(CC2CCC2)c1=O [Example 80, 1-(Cyclobutylmethyl)-3-ethyl-5-methyl-6-[(2-oxoimidazolidin-1-yl)methyl]thieno[2,3-d]pyrimidine-2,4(1H,3H)-dione] | 1.4 |
| CCn1c(=O)c2c(C)c(CN3CCNC3=O)sc2n(CC#N)c1=O [Example 81, {3-Ethyl-5-methyl-2,4-dioxo-6-[(2-oxoimidazolidin-1-yl)methyl]-3,4-dihydrothieno[2,3-d]pyrimidin-1 (2H)-yl}acetonitrile] | 14 |
| CCn1c(=O)c2c(C)c(CN3CCNC3=O)sc2n(Cc2nonc2C)c1=O [Example 82, 3-Ethyl-5-methyl-1-[(4-methyl-1,2,5-oxadiazol-3-yl)methyl]-6-[(2-oxoimidazolidin-1-yl)methyl]thieno[2,3-d]pyrimidine-2,4(1H,3H)-dione] | 17 |
| CCn1c(=O)c2c(C)c(CN3CCNC3=O)sc2n(CCN(C)C)c1=O [Example 83, 1-[2-(Dimethylamino)ethyl]-3-ethyl-5-methyl-6-[(2-oxoimidazolidin-1-yl)methyl]thieno[2,3-d]pyrimidine-2,4(1H,3H)-dione] | 380 |
| CCCn1c(=O)c2c(C)c(CN3CCNC3=O)sc2n(CCOC)c1=O [Example 84, 1-(2-Methoxyethyl)-5-methyl-6-[(2-oxoimidazolidin-1-yl)methyl]-3-propylthieno[2,3-d]pyrimidine-2,4(1H,3H)-dione] | 3.9 |
| C=CCn1c(=O)c2c(C)c(CN3CCNC3=O)sc2n(CCOC)c1=O [Example 85, 3-Allyl-1-(2-methoxyethyl)-5-methyl-6-[(2-oxoimidazolidin-1-yl)methyl]thieno[2,3-d]pyrimidine-2,4(1H,3H)-dione] | 18 |
| Cc1c(CN2CCNC2=O)sc2c1c(=O)n(CC(C)C)c(=O)n2CCC(F)(F)F [Example 87, 3-Isobutyl-5-methyl-6-[(2-oxoimidazolidin-1-yl)methyl]-1-(3,3,3-trifluoropropyl)thieno[2,3-d]pyrimidine-2,4(1H,3H)-dione] | 2.3 |
| Cc1c(CN2CCNC2=O)sc2c1c(=O)n(CC(C)C)c(=O)n2CCF [Example 88, 1-(2-Fluoroethyl)-3-isobutyl-5-methyl-6-[(2-oxoimidazolidin-1-yl)methyl]thieno[2,3-d]pyrimidine-2,4(1H,3H)-dione] | 6.7 |
| COCCn1c(=O)n(CC(C)C)c(=O)c2c(C)c(CN3CCNC3=O)sc21 [Example 89, 3-Isobutyl-1-(2-methoxyethyl)-5-methyl-6-[(2-oxoimidazolidin-1-yl)methyl]thieno[2,3-d]pyrimidine-2,4(1H,3H)-dione] | 8.7 |

The remaining lines, values ahead:

| IC50 [nM] | SMILES |
| --- | --- |
| 11 | Cc1c(CN2CCNC2=O)sc2c1c(=O)n(CC(C)C)c(=O)n2C [Example 91, 3-Isobutyl-1,5-dimethyl-6-[(2-oxoimidazolidin-1-yl)methyl]thieno[2,3-d]pyrimidine-2,4(1H,3H)-dione] |
| 9.7 | COCCn1c(=O)n(CC2CC2)c(=O)c2c(C)c(CN3CCNC3=O)sc21 [Example 92] |
| 11 | Cc1c(CN2CCNC2=O)sc2c1c(=O)n(CC(F)(F)F)c(=O)n2CCCF [Example 93, 1-(3-Fluoropropyl)-5-methyl-6-[(2-oxoimidazolidin-1-yl)methyl]-3-(2,2,2-trifluoroethyl)thieno[2,3-d]pyrimidine-2,4(1H,3H)-dione] |
| 7.7 | COCCn1c(=O)n(CC(F)(F)F)c(=O)c2c(C)c(CN3CCNC3=O)sc21 [Example 94, 1-(2-Methoxyethyl)-5-methyl-6-[(2-oxoimidazolidin-1-yl)methyl]-3-(2,2,2-trifluoroethyl)thieno[2,3-d]pyrimidine-2,4(1H,3H)-dione] |
| 11 | Cc1c(CN2CCNC2=O)sc2c1c(=O)n(CC(F)F)c(=O)n2CCCF [Example 95, 3-(2,2-Difluoroethyl)-1-(3-fluoropropyl)-5-methyl-6-[(2-oxoimidazolidin-1-yl)methyl]thieno[2,3-d]pyrimidine-2,4(1H,3H)-dione] |
| 9.4 | COCCn1c(=O)n(CC(F)F)c(=O)c2c(C)c(CN3CCNC3=O)sc21 [Example 96, 3-(2,2-Difluoroethyl)-1-(2-methoxyethyl)-5-methyl-6-[(2-oxoimidazolidin-1-yl)methyl]thieno[2,3-d]pyrimidine-2,4(1H,3H)-dione] |
| 18 | COCCn1c(=O)n(CCF)c(=O)c2c(C)c(CN3CCNC3=O)sc21 [Example 97, 3-(2-Fluoroethyl)-1-(2-methoxyethyl)-5-methyl-6-[(2-oxoimidazolidin-1-yl)methyl]thieno[2,3-d]pyrimidine-2,4(1H,3H)-dione] |
| 130 | COCCn1c(=O)n(CCC(F)(F)F)c(=O)c2c(C)c(CN3CCNC3=O)sc21 [Example 98, 1-(2-Methoxyethyl)-5-methyl-6-[(2-oxoimidazolidin-1-yl)methyl]-3-(3,3,3-trifluoropropyl)thieno[2,3-d]pyrimidine-2,4(1H,3H)-dione] |
| 6.8 | CCn1c(=O)c2c(C(F)F)c(CN3CCNC3=O)sc2n(CCC(F)(F)F)c1=O [Example 100, 5-(Difluoromethyl)-3-ethyl-6-[(2-oxoimidazolidin-1-yl)methyl]-1-(3,3,3-trifluoropropyl)thieno[2,3-d]pyrimidine-2,4(1H,3H)-dione] |
| 12 | CCn1c(=O)c2c(C(F)F)c(CN3CCNC3=O)sc2n(CCOC)c1=O [Example 101, 5-(Difluoromethyl)-3-ethyl-1-(2-methoxyethyl)-6-[(2-oxoimidazolidin-1-yl)methyl]thieno[2,3-d]pyrimidine-2,4(1H,3H)-dione] |
| 3.5 | CCn1c(=O)c2c(C)c(CN3CCN(C)C3=O)sc2n(CCC(F)(F)F)c1=O [Example 103, 3-Ethyl-5-methyl-6-[(3-methyl-2-oxoimidazolidin-1-yl)methyl]-1-(3,3,3-trifluoropropyl)thieno[2,3-d]pyrimidine-2,4(1H,3H)-dione] |
| 120 | CCn1c(=O)c2c(C)c(CN3CCN(C(C)=O)C3=O)sc2n(CCOC)c1=O [Example 104, 6-[(3-Acetyl-2-oxoimidazolidin-1-yl)methyl]-3-ethyl-1-(2-methoxyethyl)-5-methylthieno[2,3-d]pyrimidine-2,4(1H,3H)-dione] |
| 14 | COCCn1c(=O)n(CCc2ccccc2)c(=O)c2c(C(F)(F)F)c(CN3CCN(C)C3=O)sc21 [Example 105, 1-(2-Methoxyethyl)-6-[(3-methyl-2-oxoimidazolidin-1-yl)methyl]-3-(2-phenylethyl)-5-(trifluoromethyl)thieno[2,3-d]pyrimidine-2,4(1H,3H)-dione] |
| 9.2 | CCn1c(=O)c2c(C)c(CN3C(=O)CNC3=O)sc2n(CCOC(F)(F)F)c1=O [Example 106, 6-[(2,5-Dioxoimidazolidin-1-yl)methyl]-3-ethyl-5-methyl-1-[2-(trifluoromethoxy)ethyl]thieno[2,3-d]pyrimidine-2,4(1H,3H)-dione] |
| 11 | CCn1c(=O)c2c(C)c(CN3CCCNC3=O)sc2n(CCC(F)(F)F)c1=O [Example 107, 3-Ethyl-5-methyl-6-[(2-oxotetrahydropyrimidin-1(2H)-yl)methyl]-1-(3,3,3-trifluoropropyl)thieno[2,3-d]pyrimidine-2,4(1H,3H)-dione] |
| 3.3 | CCn1c(=O)c2c(C)c(CN3CCCN(C)C3=O)sc2n(CCC(F)(F)F)c1=O [Example 108, 3-Ethyl-5-methyl-6-[(3-methyl-2-oxotetrahydropyrimidin-1(2H)-yl)methyl]-1-(3,3,3-trifluoropropyl)thieno[2,3-d]pyrimidine-2,4(1H,3H)-dione] |
| 79 | C=CCn1cnn(Cc2sc3c(c2C)c(=O)n(CC)c(=O)n3CCC(F)(F)F)c1=O [Example 110, 6-[(4-Allyl-5-oxo-4,5-dihydro-H-1,2,4-triazol-1-yl)methyl]-3-ethyl-5-methyl-1-(3,3,3-trifluoropropyl)thieno[2,3-d]pyrimidine-2,4(1H,3H)-dione] |
